Laboratory results published in patent publication US20250099536A1, “PRISTINAMYCIN IA AND FLOPRISTIN COMBINATIONS IN TREATING OR PREVENTING BACTERIAL INFECTIONS” (AIMMAX THERAPEUTICS, INC., priority 2021, published 2025).
≈ marks a conversion by molar mass, not a printed value. Like-named read-outs stand apart in the source and are kept apart here. Positions of bridges follow the written chain, without caps; N, C: chain ends. Non-standard residues stand in square brackets, D forms with d. Residues, ends and D or L forms follow the SMILES beside them. *: point of attachment. NMePhe(4-NMe2) = CN[C@@H](Cc1ccc(N(C)C)cc1)C(=O)O; Pip(4-oxo) = O=C1CCN[C@H](C(=O)O)C1; Picolinoyl(3-OH) = O=C(c1ncccc1O)*; Phg = N[C@H](C(=O)O)c1ccccc1; dAbu = CC[C@@H](N)C(=O)O

Tests used:
Neisseria gonorrhoeae = assay: Broth microdilution MIC across streptogramin B:A ratios; type: cell-based
Streptococcus pneumoniae [1] = assay: MBC assay; type: cell-based; details: S. pneumoniae strains evaluated
Staphylococcus aureus = assay: Broth microdilution MIC across streptogramin B:A ratios; type: cell-based
Streptococcus pneumoniae [2] = assay: as above; type: cell-based
Mycoplasma genitalium = assay: MIC across streptogramin B:A ratios (CLSI mycoplasma method); type: cell-based; details: 10 strains and isolates
[3] = tested on: S. aureus BAA-1717 strain; assay: MIC against the infecting strain of the thigh model; details: Staphylococcus aureus, BAA1717

CC[C@H]1OC(=O)[C@H](C)[C@@H](O[C@H]2C[C@@](C)(OC)[C@@H](O)[C@H](C)O2)[C@H](C)[C@@H](O[C@@H]2O[C@H](C)C[C@H](N(C)C)[C@H]2O)[C@](C)(O)C[C@@H](C)CN(C)[C@H](C)[C@@H](O)[C@]1(C)O [AZI, Azithromycin, reference compound]
MIC (Neisseria gonorrhoeae; Neisseria gonorrhoeae, ATCC49226, strain ATCC 49226, read-out: MIC): 0.5 µg/mL | MIC (Neisseria gonorrhoeae; Neisseria gonorrhoeae, strain CDC 0167, read-out: MIC): 16 µg/mL | MIC (Neisseria gonorrhoeae; Neisseria gonorrhoeae, strain CDC 0175, read-out: MIC): 16 µg/mL | MIC (Neisseria gonorrhoeae; Neisseria gonorrhoeae, strain CDC 0177, read-out: MIC): 4 µg/mL | MIC (Neisseria gonorrhoeae; Neisseria gonorrhoeae, strain CDC 0181, read-out: MIC): > 16 µg/mL | MIC (Neisseria gonorrhoeae; Neisseria gonorrhoeae, strain CDC 0194, read-out: MIC): 0.5 µg/mL | MIC (Neisseria gonorrhoeae; Neisseria gonorrhoeae, strain MMX 6921, read-out: MIC): 16 µg/mL | MIC (Neisseria gonorrhoeae; Neisseria gonorrhoeae, strain WHO F, read-out: MIC): 0.12 µg/mL | MIC (Neisseria gonorrhoeae; Neisseria gonorrhoeae, strain WHO G, read-out: MIC): 0.25 µg/mL | MIC (Neisseria gonorrhoeae; Neisseria gonorrhoeae, strain WHO K, read-out: MIC): 0.5 µg/mL | MIC (Neisseria gonorrhoeae; Neisseria gonorrhoeae, strain WHO L, read-out: MIC): 0.5 µg/mL | MIC (Neisseria gonorrhoeae; Neisseria gonorrhoeae, strain WHO M, read-out: MIC): 0.5 µg/mL | MIC (Neisseria gonorrhoeae; Neisseria gonorrhoeae, strain WHO N, read-out: MIC): 0.25 µg/mL | MIC (Neisseria gonorrhoeae; Neisseria gonorrhoeae, strain WHO O, read-out: MIC): 0.5 µg/mL | MIC (Neisseria gonorrhoeae; Neisseria gonorrhoeae, strain WHO P, read-out: MIC): 8 µg/mL | MIC (Neisseria gonorrhoeae; Neisseria gonorrhoeae, strain WHO U, read-out: MIC): 8 µg/mL | MIC (Neisseria gonorrhoeae; Neisseria gonorrhoeae, strain WHO V, read-out: MIC): > 16 µg/mL | MIC (Neisseria gonorrhoeae; Neisseria gonorrhoeae, strain WHO W, read-out: MIC): 0.5 µg/mL | MIC (Neisseria gonorrhoeae; Neisseria gonorrhoeae, strain WHO X, read-out: MIC): 1 µg/mL | MIC (Neisseria gonorrhoeae; Neisseria gonorrhoeae, strain WHO Y, read-out: MIC): 1 µg/mL

CC1=C\[C@@H](O)C[C@@H](F)Cc2nc(co2)C(=O)N2CCC[C@@H]2C(=O)O[C@H](C(C)C)[C@H](C)/C=C/C(=O)NC\C=C\1 [CBA1 0:100, flopristin]
MIC (Neisseria gonorrhoeae; strain ATCC 49226): 0.12 µg/mL | MIC (Neisseria gonorrhoeae; strain CDC 0167): 0.03 µg/mL | MIC (Neisseria gonorrhoeae; strain CDC 0175): 0.03 µg/mL | MIC (Neisseria gonorrhoeae; strain CDC 0177): 0.06 µg/mL | MIC (Neisseria gonorrhoeae; strain CDC 0181): 0.12 µg/mL | MIC (Neisseria gonorrhoeae; strain CDC 0194): 0.06 µg/mL | MIC (Neisseria gonorrhoeae; strain MMX 6921): 0.12 µg/mL | MIC (Neisseria gonorrhoeae; strain WHO F): 0.015 µg/mL | MIC (Neisseria gonorrhoeae; strain WHO G): 0.12 µg/mL | MIC (Neisseria gonorrhoeae; strain WHO K): 0.25 µg/mL | MIC (Neisseria gonorrhoeae; strain WHO L): 0.12 µg/mL | MIC (Neisseria gonorrhoeae; strain WHO M): 0.12 µg/mL | MIC (Neisseria gonorrhoeae; strain WHO N): 0.12 µg/mL | MIC (Neisseria gonorrhoeae; strain WHO O): 0.12 µg/mL | MIC (Neisseria gonorrhoeae; strain WHO P): 0.5 µg/mL | MIC (Neisseria gonorrhoeae; strain WHO U): 0.12 µg/mL | MIC (Neisseria gonorrhoeae; strain WHO V): 0.25 µg/mL | MIC (Neisseria gonorrhoeae; strain WHO W): 0.12 µg/mL | MIC (Neisseria gonorrhoeae; strain WHO X): 0.12 µg/mL | MIC (Neisseria gonorrhoeae; strain WHO Y): 0.12 µg/mL | Strains against which bactericidal (MBC divided by MIC ≤4) (Streptococcus pneumoniae [1]): 5 out of the 5 | MIC (Staphylococcus aureus; strain ATCC 29213): 1 µg/mL | MIC (Staphylococcus aureus; strain ATCC BAA 977): 1 µg/mL | MIC (Staphylococcus aureus; strain ATCC BAA-976): 0.5 µg/mL | MIC (Staphylococcus aureus; strain MMX 2336): 0.5 µg/mL | MIC (Staphylococcus aureus; strain MMX 3035): 0.5 µg/mL | MIC (Staphylococcus aureus; strain MMX 3037): 0.25 µg/mL | MIC (Staphylococcus aureus; strain MMX 3095): 1 µg/mL | MIC (Staphylococcus aureus; strain MMX 3098): 1 µg/mL | MIC (Staphylococcus aureus; strain MMX 3885): 0.5 µg/mL | MIC (Staphylococcus aureus; strain MMX 3983): 0.5 µg/mL | MIC (Staphylococcus aureus; strain MMX 4670): 0.25 µg/mL | MIC (Staphylococcus aureus; strain MMX 5787): 2 µg/mL | MIC (Staphylococcus aureus; strain NRS 271): 2 µg/mL | MIC (Staphylococcus aureus; strain NRS 382): 1 µg/mL | MIC (Staphylococcus aureus; strain NRS 384): 1 µg/mL | MIC (Streptococcus pneumoniae [2]; strain ATCC 49619): 2 µg/mL | MIC (Streptococcus pneumoniae [2]; strain ATCC 700677): 8 µg/mL | MIC (Streptococcus pneumoniae [2]; strain MMX 3031): 4 µg/mL | MIC (Streptococcus pneumoniae [2]; strain MMX 3033): 4 µg/mL | MIC (Streptococcus pneumoniae [2]; strain MMX 4937): 2 µg/mL | MIC range (Mycoplasma genitalium): 0.015 to 0.5 µg/mL

CC[C@H]1NC(=O)[C@@H](NC(=O)c2ncccc2O)[C@@H](C)OC(=O)[C@H](c2ccccc2)NC(=O)[C@@H]2CC(=O)CCN2C(=O)[C@H](Cc2ccc(N(C)C)cc2)N(C)C(=O)[C@@H]2CCCN2C1=O [CBA1 100:0, pristinamycin IA] ({Picolinoyl(3-OH)}-T[dAbu]P[NMePhe(4-NMe2)][Pip(4-oxo)][Phg]; ester 1-C)
MIC (Neisseria gonorrhoeae; strain ATCC 49226): >64 µg/mL | MIC (Neisseria gonorrhoeae; strain CDC 0167): >64 µg/mL | MIC (Neisseria gonorrhoeae; strain CDC 0175): >64 µg/mL | MIC (Neisseria gonorrhoeae; strain CDC 0177): >64 µg/mL | MIC (Neisseria gonorrhoeae; strain CDC 0181): >64 µg/mL | MIC (Neisseria gonorrhoeae; strain CDC 0194): 32 µg/mL | MIC (Neisseria gonorrhoeae; strain MMX 6921): >64 µg/mL | MIC (Neisseria gonorrhoeae; strain WHO F): 32 µg/mL | MIC (Neisseria gonorrhoeae; strain WHO G): >64 µg/mL | MIC (Neisseria gonorrhoeae; strain WHO K): >64 µg/mL | MIC (Neisseria gonorrhoeae; strain WHO L): 64 µg/mL | MIC (Neisseria gonorrhoeae; strain WHO M): 64 µg/mL | MIC (Neisseria gonorrhoeae; strain WHO N): >64 µg/mL | MIC (Neisseria gonorrhoeae; strain WHO O): 64 µg/mL | MIC (Neisseria gonorrhoeae; strain WHO P): >64 µg/mL | MIC (Neisseria gonorrhoeae; strain WHO U): >64 µg/mL | MIC (Neisseria gonorrhoeae; strain WHO V): >64 µg/mL | MIC (Neisseria gonorrhoeae; strain WHO W): 64 µg/mL | MIC (Neisseria gonorrhoeae; strain WHO X): >64 µg/mL | MIC (Neisseria gonorrhoeae; strain WHO Y): 32 µg/mL | Strains against which bactericidal (MBC divided by MIC ≤4) (Streptococcus pneumoniae [1]): 2 out of the 4 | MIC (Staphylococcus aureus; strain ATCC 29213): 8 µg/mL | MIC (Staphylococcus aureus; strain ATCC BAA 977): 16 µg/mL | MIC (Staphylococcus aureus; strain ATCC BAA-976): 8 µg/mL | MIC (Staphylococcus aureus; strain MMX 2336): 8 µg/mL | MIC (Staphylococcus aureus; strain MMX 3035): >64 µg/mL | MIC (Staphylococcus aureus; strain MMX 3037): >64 µg/mL | MIC (Staphylococcus aureus; strain MMX 3095): 8 µg/mL | MIC (Staphylococcus aureus; strain MMX 3098): 8 µg/mL | MIC (Staphylococcus aureus; strain MMX 3885): 8 µg/mL | MIC (Staphylococcus aureus; strain MMX 3983): >64 µg/mL | MIC (Staphylococcus aureus; strain MMX 4670): >64 µg/mL | MIC (Staphylococcus aureus; strain MMX 5787): >64 µg/mL | MIC (Staphylococcus aureus; strain NRS 271): 8 µg/mL | MIC (Staphylococcus aureus; strain NRS 382): >64 µg/mL | MIC (Staphylococcus aureus; strain NRS 384): 8 µg/mL | MIC (Streptococcus pneumoniae [2]; strain ATCC 49619): 1 µg/mL | MIC (Streptococcus pneumoniae [2]; strain ATCC 700677): 32 µg/mL | MIC (Streptococcus pneumoniae [2]; strain MMX 3031): 0.5 µg/mL | MIC (Streptococcus pneumoniae [2]; strain MMX 3033): 2 µg/mL | MIC (Streptococcus pneumoniae [2]; strain MMX 4937): 1 µg/mL | MIC range (Mycoplasma genitalium): 2 to 16 µg/mL

CC(=O)NC[C@H]1CN(c2ccc(N3CCOCC3)c(F)c2)C(=O)O1 [linezolid]
MIC [3]: 2 µg/mL (≈ 5.93 µM)

CN[C@H](CC(C)C)C(=O)N[C@H]1C(=O)N[C@@H](CC(N)=O)C(=O)N[C@H]2C(=O)N[C@H]3C(=O)N[C@H](C(=O)N[C@H](C(=O)O)c4cc(O)cc(O)c4-c4cc3ccc4O)[C@H](O)c3ccc(c(Cl)c3)Oc3cc2cc(c3O[C@@H]2O[C@H](CO)[C@@H](O)[C@H](O)[C@H]2O[C@H]2C[C@](C)(N)[C@H](O)[C@H](C)O2)Oc2ccc(cc2Cl)[C@H]1O [vancomycin]
MIC [3]: 1 µg/mL (≈ 0.69 µM)
